In patent EP2562249A1, “Engineered host cells and methods for the production of cis, cis-muconic acid” (Helmholtz-Zentrum für Infektionsforschung GmbH, priority 2011, dated 2013):

Assays:
P. putida KT2440 = assay: Growth in the presence of the benzoate substrate analogues 3-FB or 3-CIB; format: cell-based; details: MM with 10 mM succinate and 1 mM benzoate, increasing concentrations; 3-FB as compared to 3-CIB
Protocol: To determine the optimal concentrations of the substrate analogues, P. putida KT2440 was grown in MM with 10 mM succinate and 1 mM benzoate in the presence of increasing concentrations of 3-FB or 3-CIB. The accumulation of fluorocatechol derivatives is known to result in a violet coloration of the medium. When P. putida KT2440 was exposed to 3-FB or 3-CIB a violet coloration of the medium was observed. […] Therefore, two independent batch cultures of NTG-treated P. putida KT2440 cells were cultivated in the presence of 20 mM 3-FB. Batch culture 1 was grown for 14 hours and batch culture 2 for 24 hours, after which the cultures were plated. Individual colonies were screened for their ability to grow with benzoate as the sole source of carbon and energy. Three mutants that could no longer grow using benzoate were isolated from batch 1 and 84 mutants were isolated from batch 2, which represented 0.1 % and 4.4 %, respectively, of the total amount of colonies that were screened. No mutants were found when the NTG-treated P. putida KT2440 cells were not exposed to 3-FB. All mutants accumulated cis, cis-muconate in the medium when grown with succinate in the presence of benzoate. Therefore, the disability of the further conversion of 2-fluoro-cis, cis-muconate by the muconate lactonizing enzyme seems to have caused the selective advantage. […]

[1] = molecular target: T1, catA2 (catechol 1,2-dioxygenase) (Pseudomonas putida, UniProt Q88I35); assay: catA2 activity assay: increase in cis, cis-muconate from catechol measured at A256 with purified His-tagged enzyme; format: biochemical, P. putida KT2440
T1 sequence (Q88I35 1-304): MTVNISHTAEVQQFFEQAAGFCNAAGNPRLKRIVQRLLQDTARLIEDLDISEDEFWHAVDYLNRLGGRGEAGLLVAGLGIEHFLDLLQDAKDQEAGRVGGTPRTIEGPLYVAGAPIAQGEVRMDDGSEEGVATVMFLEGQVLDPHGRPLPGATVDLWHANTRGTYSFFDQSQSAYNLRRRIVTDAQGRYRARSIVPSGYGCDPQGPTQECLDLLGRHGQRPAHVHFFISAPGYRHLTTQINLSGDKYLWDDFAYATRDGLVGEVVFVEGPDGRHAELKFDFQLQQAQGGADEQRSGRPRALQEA
Excerpt: (§1) Gene catA2 was amplified from the genome of P. putida KT2440 by PCR using the forward primer 5'- […]-'3 (SEQ ID No. 7) and the reverse primer 5'-[…]-'3 (SEQ ID No. 8) containing a NdeI and XhoI site, respectively. The PCR fragment was ligated into the pET-28a(+) expression vector (Novagen, USA). The catA2 insert was controlled by sequencing after amplification with the T7 and T7 term primer set (Eurofins MWG GmbH, Germany).
(§2) pET-28a(+) with and without the catA2 insert were electro transformed into E. coli BLN21 and plated on LB with kanamycin (50 µg/mL). Transformants containing the plasmid with and without catA2 were grown overnight in 25 mL LB with kanamycin (50 µg/mL) at 37 °C with shaking. […] The purification of CatA2 was monitored with SDS-PAGE and Westernblotting using His-Tag antibodies (Abcam, U. K.).
(§3) The activity of catA2 was assayed by measuring the increase in cis, cis-muconate concentration from catechol in a buffer containing 20 mM Tris-HCl, 0.125 M imidazole (pH 7.8) at A256 using an UV mc2® spectrophotometer (SAFAS, Monaco). In order to determine the km value of the enzyme, the conversion rate of catechol to cis, cis-muconate was measured at 10 different concentrations of catechol ranging between from 0.0001 to 0.05 mM. […] The values for Km, IC50, and Vmax were calculated by Graphpad Prism (Graphpad Software, Inc., USA).

[2] = substrate: Oc1ccccc1O; assay: as above; format: biochemical, P. putida KT2440; details: other: substrate catechol, 0.0001 to 0.05 mM, 20 mM Tris-HCl, 0.125 M imidazole, pH 7.8, 37.0 °C
Excerpt: as §1, §2, §3

`O=C(O)c1cccc(F)c1` [3-FB, 3-fluorobenzoate] was tested, and the “Growth of P. putida KT2440” value (P. putida KT2440) was “more inhibited”.

In the case of `O=C(O)/C=C\C=C/C(=O)O` [cis, cis-muconate], the IC50 ([1]; at a concentration of 0.05 mM catechol, cis, cis-muconate 0 to 0.2 mM) is reported as 139 µM and the Ki ([1]; calculated from Km and IC50 using the Cheng-Prusoff equation) is reported as 2.8 µM.

B1: catA2 (catechol 1,2-dioxygenase) (Pseudomonas putida KT2440) (protein)
chain: T1 sequence (Q88I35 1-304)
B1 gave a Km [2] of 1 µM.
